One assay addresses VEGFR2, unphosphorylated (Homo sapiens (Human), UniProt P35968). Briefly: VEGFR ADP GLO Assay. The format is biochemical.
In assay [1] the target is Tb-labeled inactive PDGFRβ (Homo sapiens (Human), UniProt P09619). Briefly: PDGFRβ LanthaScreen Assay. To be noted: read-out: PDGFR Lantha IC50. The format is binding.

Data on 18 molecules can be found in patent publication US20240109917A1 (ACTELION PHARMACEUTICALS LTD, priority 2020, published 2024).

SMILES strings stand for the structures. Where only a bound is given, the exact number is not on record here.

Tb-labeled inactive PDGFRβ, sequence (P09619 33-1106): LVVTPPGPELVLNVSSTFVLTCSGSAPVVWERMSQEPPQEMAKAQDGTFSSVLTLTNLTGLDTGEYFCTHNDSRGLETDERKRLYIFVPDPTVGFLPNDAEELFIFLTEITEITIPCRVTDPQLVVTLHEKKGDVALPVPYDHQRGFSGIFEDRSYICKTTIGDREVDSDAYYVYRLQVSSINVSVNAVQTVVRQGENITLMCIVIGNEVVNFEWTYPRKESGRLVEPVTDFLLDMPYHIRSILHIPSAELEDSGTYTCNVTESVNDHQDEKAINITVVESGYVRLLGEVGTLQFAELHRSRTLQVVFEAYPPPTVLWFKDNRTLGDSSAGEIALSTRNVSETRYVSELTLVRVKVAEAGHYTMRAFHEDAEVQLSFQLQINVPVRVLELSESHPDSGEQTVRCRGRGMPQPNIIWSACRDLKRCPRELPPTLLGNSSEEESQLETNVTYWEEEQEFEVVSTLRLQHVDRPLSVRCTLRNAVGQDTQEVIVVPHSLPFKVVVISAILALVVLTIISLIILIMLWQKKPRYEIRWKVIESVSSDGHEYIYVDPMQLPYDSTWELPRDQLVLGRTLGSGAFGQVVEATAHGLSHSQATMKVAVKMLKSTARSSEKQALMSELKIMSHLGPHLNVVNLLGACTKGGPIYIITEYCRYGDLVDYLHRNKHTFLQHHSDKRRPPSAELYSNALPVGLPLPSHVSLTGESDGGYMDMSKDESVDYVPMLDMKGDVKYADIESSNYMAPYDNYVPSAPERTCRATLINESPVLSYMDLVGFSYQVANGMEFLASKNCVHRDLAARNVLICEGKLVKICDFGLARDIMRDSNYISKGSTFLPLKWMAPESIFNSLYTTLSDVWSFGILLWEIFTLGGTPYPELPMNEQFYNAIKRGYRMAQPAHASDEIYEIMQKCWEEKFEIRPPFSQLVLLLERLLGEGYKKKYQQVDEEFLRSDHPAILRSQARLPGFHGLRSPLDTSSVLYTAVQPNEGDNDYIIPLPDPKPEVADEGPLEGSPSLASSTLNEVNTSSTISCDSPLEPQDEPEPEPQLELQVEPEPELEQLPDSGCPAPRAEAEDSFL
VEGFR2, unphosphorylated, sequence (P35968 20-1356): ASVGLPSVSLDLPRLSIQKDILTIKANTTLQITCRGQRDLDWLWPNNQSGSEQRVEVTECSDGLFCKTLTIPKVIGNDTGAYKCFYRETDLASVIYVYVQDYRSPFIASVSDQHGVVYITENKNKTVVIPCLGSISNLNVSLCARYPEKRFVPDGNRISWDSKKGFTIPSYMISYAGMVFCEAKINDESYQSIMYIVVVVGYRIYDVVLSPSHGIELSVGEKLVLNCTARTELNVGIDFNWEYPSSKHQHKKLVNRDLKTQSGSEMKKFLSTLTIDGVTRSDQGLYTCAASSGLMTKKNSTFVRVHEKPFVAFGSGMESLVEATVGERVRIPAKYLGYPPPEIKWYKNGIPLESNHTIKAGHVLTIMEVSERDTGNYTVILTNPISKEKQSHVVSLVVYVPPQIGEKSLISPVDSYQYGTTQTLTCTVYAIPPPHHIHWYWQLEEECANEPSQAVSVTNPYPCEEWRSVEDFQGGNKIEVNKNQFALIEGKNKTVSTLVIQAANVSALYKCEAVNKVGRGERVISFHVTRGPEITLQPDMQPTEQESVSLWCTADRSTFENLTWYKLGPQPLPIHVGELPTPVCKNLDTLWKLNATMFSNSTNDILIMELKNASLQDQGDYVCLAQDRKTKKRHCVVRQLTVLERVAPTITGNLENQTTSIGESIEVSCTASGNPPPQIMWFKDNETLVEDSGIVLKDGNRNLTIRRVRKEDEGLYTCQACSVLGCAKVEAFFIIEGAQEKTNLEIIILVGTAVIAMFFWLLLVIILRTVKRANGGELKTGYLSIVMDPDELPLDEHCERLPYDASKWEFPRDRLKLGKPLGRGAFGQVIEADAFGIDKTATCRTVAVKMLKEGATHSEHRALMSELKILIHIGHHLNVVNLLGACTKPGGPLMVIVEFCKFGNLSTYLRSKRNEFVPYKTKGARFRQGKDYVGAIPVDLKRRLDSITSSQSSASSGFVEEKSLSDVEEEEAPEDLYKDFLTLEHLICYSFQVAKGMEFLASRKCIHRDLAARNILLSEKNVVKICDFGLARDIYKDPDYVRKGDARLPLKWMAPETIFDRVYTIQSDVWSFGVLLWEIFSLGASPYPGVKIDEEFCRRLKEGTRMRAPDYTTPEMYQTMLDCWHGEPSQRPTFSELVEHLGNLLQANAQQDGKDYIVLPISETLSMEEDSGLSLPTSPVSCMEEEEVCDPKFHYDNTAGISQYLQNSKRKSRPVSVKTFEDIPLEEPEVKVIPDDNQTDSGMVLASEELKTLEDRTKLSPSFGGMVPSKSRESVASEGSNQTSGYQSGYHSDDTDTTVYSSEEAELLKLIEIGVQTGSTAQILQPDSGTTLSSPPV

With `Cc1ncc(NC(=O)CN2CC(C)(C)C2)cc1NC(=O)c1cnn2cc(-c3cnn(CS(C)(=O)=O)c3)sc12` [Example 265, N-(5-(2-(3,3-dimethylazetidin-1-yl)acetamido)-2-methylpyridin-3-yl)-2-(1-((methylsulfonyl)methyl)-1H-pyrazol-4-yl)pyrazolo[5,1-b]thiazole-7-carboxamide], the 50% inhibitory concentration (IC50) – broadly, the point on the concentration scale where inhibition reaches its midpoint – against VEGFR2, unphosphorylated is above 7500 nM; in assay [1], 8.7 nM.
Regarding `Cc1ncc(NC(=O)CN2CC(C)(C)C2)cc1NC(=O)c1cnn2cc(-c3cnn(CC#N)c3)sc12` [Example 266, 2-(1-(cyanomethyl)-1H-pyrazol-4-yl)-N-(5-(2-(3,3-dimethylazetidin-1-yl)acetamido)-2-methylpyridin-3-yl)pyrazolo[5,1-b]thiazole-7-carboxamide], the IC50 against VEGFR2, unphosphorylated was above 7500 nM; in assay [1] it was 11.1 nM.
The like results for `Cc1ncc(NC(=O)CN2CC(C)(C)C2)cc1NC(=O)c1cnn2cc(-c3cnn(CC(N)=O)c3)sc12` [Example 267, 2-(1-(2-amino-2-oxoethyl)-1H-pyrazol-4-yl)-N-(5-(2-(3,3-dimethylazetidin-1-yl)acetamido)-2-methylpyridin-3-yl)pyrazolo[5,1-b]thiazole-7-carboxamide] were, in that order, above 7500 nM and 13.7 nM.
With `Cc1ncc(NC(=O)CN2CC(C)(C)C2)cc1NC(=O)c1cnn2cc(-c3cnn(CC(F)(F)F)c3)sc12` [Example 268, N-(5-(2-(3,3-dimethylazetidin-1-yl)acetamido)-2-methylpyridin-3-yl)-2-(1-(2,2,2-trifluoroethyl)-1H-pyrazol-4-yl)pyrazolo[5,1-b]thiazole-7-carboxamide], the IC50 on VEGFR2, unphosphorylated is above 7500 nM; in assay [1], 14.5 nM.
As to `Cc1ncc(NC(=O)CN2CC(C)(C)C2)cc1NC(=O)c1cnn2cc(-c3cnn(C(F)(F)F)c3)sc12` [Example 269, N-(5-(2-(3,3-dimethylazetidin-1-yl)acetamido)-2-methylpyridin-3-yl)-2-(1-(trifluoromethyl)-1H-pyrazol-4-yl)pyrazolo[5,1-b]thiazole-7-carboxamide], the IC50 is above 7500 nM on VEGFR2, unphosphorylated and 71.2 nM in assay [1].
`Cc1ncc(NC(=O)CN2CC(C)(C)C2)cc1NC(=O)c1cnn2cc(-c3cnn(CC4CC4)c3)sc12` [Example 270, 2-(1-(cyclopropylmethyl)-1H-pyrazol-4-yl)-N-(5-(2-(3,3-dimethylazetidin-1-yl)acetamido)-2-methylpyridin-3-yl)pyrazolo[5,1-b]thiazole-7-carboxamide]: the IC50 on VEGFR2, unphosphorylated is above 7500 nM; in assay [1] it was 5.4 nM.
On to `Cc1ncc(NC(=O)CN2CC(C)(C)C2)cc1NC(=O)c1cnn2cc(-c3cn[nH]c3)sc12` [Example 271, N-(5-(2-(3,3-dimethylazetidin-1-yl)acetamido)-2-methylpyridin-3-yl)-2-(1H-pyrazol-4-yl)pyrazolo[5,1-b]thiazole-7-carboxamide], for which the IC50 against VEGFR2, unphosphorylated was determined as 5930 nM; in assay [1], 2.8 nM.
As for `Cc1ncc(NC(=O)CN2CC(C)(C)C2)cc1NC(=O)c1cnn2cc(-c3ccc(C4(O)COC4)cc3)sc12` [Example 272, N-(5-(2-(3,3-dimethylazetidin-1-yl)acetamido)-2-methylpyridin-3-yl)-2-(4-(3-hydroxyoxetan-3-yl)phenyl)pyrazolo[5,1-b]thiazole-7-carboxamide], the IC50 on VEGFR2, unphosphorylated was above 7500 nM; in assay [1], 1.4 nM.
For `CC(=O)Nc1cc(-c2cn3ncc(C(=O)Nc4cc(NC(=O)CN5CC(C)(C)C5)cnc4C)c3s2)ccn1` [Example 273, 2-(2-acetamidopyridin-4-yl)-N-(5-(2-(3,3-dimethylazetidin-1-yl)acetamido)-2-methylpyridin-3-yl)pyrazolo[5,1-b]thiazole-7-carboxamide], the IC50 against VEGFR2, unphosphorylated is above 7500 nM; in assay [1] it was 3.6 nM.
The like results for `CNC(=O)c1cc(-c2cn3ncc(C(=O)Nc4cc(NC(=O)CN5CC(C)(C)C5)cnc4C)c3s2)ccn1` [Example 274, N-(5-(2-(3,3-dimethylazetidin-1-yl)acetamido)-2-methylpyridin-3-yl)-2-(2-(methylcarbamoyl)pyridin-4-yl)pyrazolo[5,1-b]thiazole-7-carboxamide] were, in that order, above 7500 nM and 21.4 nM.
On to `Cc1ncc(NC(=O)CN2CC(C)(C)C2)cc1NC(=O)c1cnn2cc(-c3ccn(S(C)(=O)=O)c3)sc12` [Example 275, N-(5-(2-(3,3-dimethylazetidin-1-yl)acetamido)-2-methylpyridin-3-yl)-2-(1-(methylsulfonyl)-1H-pyrrol-3-yl)pyrazolo[5,1-b]thiazole-7-carboxamide], for which the IC50 at VEGFR2, unphosphorylated was above 7500 nM; in assay [1] it was 2.5 nM.
In the case of `CC(=O)Nc1cncc(-c2cn3ncc(C(=O)Nc4cc(NC(=O)CN5CC(C)(C)C5)cnc4C)c3s2)c1` [Example 277, 2-(5-acetamidopyridin-3-yl)-N-(5-(2-(3,3-dimethylazetidin-1-yl)acetamido)-2-methylpyridin-3-yl)pyrazolo[5,1-b]thiazole-7-carboxamide], the IC50 on VEGFR2, unphosphorylated was above 2500 nM; in assay [1] it was 5.7 nM.
The matching figures for `Cc1ncc(NC(=O)CN2CC(C)(C)C2)cc1NC(=O)c1cnn2cc(-c3ccc(CO)s3)sc12` [Example 278, N-(5-(2-(3,3-dimethylazetidin-1-yl)acetamido)-2-methylpyridin-3-yl)-2-(5-(hydroxymethyl)thiophen-2-yl)pyrazolo[5,1-b]thiazole-7-carboxamide]: above 7500 nM and 1.4 nM.
`CNC(=O)Cn1cc(-c2cn3ncc(C(=O)Nc4cc(NC(=O)CN5CC(C)(C)C5)cnc4C)c3s2)cn1` [Example 279, N-(5-(2-(3,3-dimethylazetidin-1-yl)acetamido)-2-methylpyridin-3-yl)-2-(1-(2-(methylamino)-2-oxoethyl)-1H-pyrazol-4-yl)pyrazolo[5,1-b]thiazole-7-carboxamide]: the IC50 was above 7500 nM at VEGFR2, unphosphorylated and 8.6 nM in assay [1].
The matching figures for `Cc1ncc(NC(=O)CN2CC(C)(C)C2)cc1NC(=O)c1cnn2cc(-c3cnn(C4CCS(=O)(=O)CC4)c3)sc12` [Example 280, N-(5-(2-(3,3-dimethylazetidin-1-yl)acetamido)-2-methylpyridin-3-yl)-2-(1-(1,1-dioxidotetrahydro-2H-thiopyran-4-yl)-1H-pyrazol-4-yl)pyrazolo[5,1-b]thiazole-7-carboxamide]: above 7500 nM and 4.3 nM.
With `Cc1ncc(NC(=O)CN2CC(C)(C)C2)cc1NC(=O)c1cnn2cc(-c3cnn(CC(C)O)c3)sc12` (stereo not drawn) [Example 281, N-(5-(2-(3,3-dimethylazetidin-1-yl)acetamido)-2-methylpyridin-3-yl)-2-(1-(2-hydroxypropyl)-1H-pyrazol-4-yl)pyrazolo[5,1-b]thiazole-7-carboxamide], the IC50 at VEGFR2, unphosphorylated is above 7500 nM; in assay [1] it was 3.8 nM.
For `Cc1ncc(NC(=O)CN2CC(C)(C)C2)cc1NC(=O)c1cnn2cc(-c3ccsc3)sc12` [Example 282, N-(5-(2-(3,3-dimethylazetidin-1-yl)acetamido)-2-methylpyridin-3-yl)-2-(thiophen-3-yl)pyrazolo[5,1-b]thiazole-7-carboxamide], the IC50 on VEGFR2, unphosphorylated turned out to be 2680 nM; in assay [1] it was 1.2 nM.
`Cc1ncc(NC(=O)CN2CC(C)(C)C2)cc1NC(=O)c1cnn2cc(-c3ccoc3)sc12` [Example 283, N-(5-(2-(3,3-dimethylazetidin-1-yl)acetamido)-2-methylpyridin-3-yl)-2-(furan-3-yl)pyrazolo[5,1-b]thiazole-7-carboxamide]: the IC50 against VEGFR2, unphosphorylated is above 7500 nM; in assay [1], 2.2 nM.
